What all share (experiment): NCI-60 one-dose SRB screening
Type in all cases: cell-based

One assay has as its system A498. The following applies: Homo sapiens, A498, Renal Cancer, 10 µM one dose, 48 h, read-out: growth percentage.
A further assay concerns HCT-116. The following applies: Homo sapiens, HCT-116, Colon Cancer, 10 µM one dose, 48 h, read-out: growth percentage.
In another assay the test system is HL-60(TB). The following applies: Homo sapiens, Leukemia, 10 µM one dose, 48 h, read-out: growth percentage.
In the next assay the test system is HOP-92. The note with it: Homo sapiens, HOP-92, Non-Small Cell Lung Cancer, 10 µM one dose, 48 h, read-out: growth percentage.
The test system of a further assay is HS 578T. The following applies: Homo sapiens, Breast Cancer, 10 µM one dose, 48 h, read-out: growth percentage.
The next assay relates to K-562. The note with it: Homo sapiens, K562, K-562, Leukemia, 10 µM one dose, 48 h, read-out: growth percentage.
The subject of another assay is KM12. The following applies: Homo sapiens, KM12, Colon Cancer, 10 µM one dose, 48 h, read-out: growth percentage.
For the next assay, the system named is MDA-MB-435. The note with it: Homo sapiens, MDA-MB-435, Melanoma, 10 µM one dose, 48 h, read-out: growth percentage.
Another assay has as its system NCI-H23. The following applies: Homo sapiens, NCI-H23, Non-Small Cell Lung Cancer, 10 µM one dose, 48 h, read-out: growth percentage.
In a further assay the test system is NCI-H460. The following applies: Homo sapiens, NCI-H460, Non-Small Cell Lung Cancer, 10 µM one dose, 48 h, read-out: growth percentage.
For the next assay, the system named is OVCAR-3. The following applies: Homo sapiens, OVCAR-3, Ovarian Cancer, 10 µM one dose, 48 h, read-out: growth percentage.
For the next assay, the system named is OVCAR-5. The note with it: Homo sapiens, OVCAR-5, Ovarian Cancer, 10 µM one dose, 48 h, read-out: growth percentage.
In a further assay the test system is SF-268. The note with it: Homo sapiens, SF-268, CNS Cancer, 10 µM one dose, 48 h, read-out: growth percentage.
Another assay deals with SR. The note with it: Homo sapiens, Leukemia, 10 µM one dose, 48 h, read-out: growth percentage.
Another assay concerns UACC-62. The following applies: Homo sapiens, UACC-62, Melanoma, 10 µM one dose, 48 h, read-out: growth percentage.

The structures appear in SMILES notation.

Turning to `[O-][n+]1onc(-c2ccccc2)c1COc1ccc(Nc2ncnc3c2cnn3-c2ccccc2)cc1` [6a, 4-phenyl-3-((4-((1-phenyl-1H-pyrazolo[3,4-d]pyrimidin-4-yl)amino)phenoxy)methyl)-1,2,5-oxadiazole 2-oxide], the activity at 10 µM in the assay with A498 was determined as 103%; in the assay with HCT-116, 93%; in the assay with HL-60(TB) it was 94.7%; in the assay with HOP-92 it was 115%; in the assay on HS 578T it was 98.7%; in the assay on K-562, 88%. For the same compound, the activity at 10 µM in the assay on KM12 worked out at 103%; in the assay on MDA-MB-435, 114%; in the assay with NCI-H23, 105%; in the assay on NCI-H460, 73.6%; in the assay on OVCAR-3, 95.9%; with OVCAR-5, 110%. Moreover, the results for the activity at 10 µM in the assay on SF-268, with SR and in the assay with UACC-62 were 103%, 85.2% and 103%, respectively.
For `Cc1nc(Nc2ccc(OCc3c(-c4ccccc4)no[n+]3[O-])cc2)c2cnn(-c3ccccc3)c2n1` [6b, 3-((4-((6-methyl-1-phenyl-1H-pyrazolo[3,4-d]pyrimidin-4-yl)amino)phenoxy)methyl)-4-phenyl-1,2,5-oxadiazole 2-oxide], the activity at 10 µM in the assay with A498 turned out to be 102%; in the assay with HCT-116 it was 99.2%; in the assay on HL-60(TB), 122%; in the assay on HOP-92 it was 91.4%; in the assay with HS 578T, 110%; in the assay with K-562, 111%. Besides, the activity at 10 µM was found to be 102% in the assay with KM12; 99.7% with MDA-MB-435; 102% with NCI-H23; 111% with NCI-H460; 109% with OVCAR-3; 106% in the assay on OVCAR-5. Also, the activity at 10 µM in the assay with SF-268 came to 103%; in the assay on SR it was 89.1%; in the assay with UACC-62, 88.4%.
With `Cc1nn(-c2ccccc2)c2ncnc(Nc3ccc(OCc4c(-c5ccccc5)no[n+]4[O-])cc3)c12` [6c, 3-((4-((3-methyl-1-phenyl-1H-pyrazolo[3,4-d]pyrimidin-4-yl)amino)phenoxy)methyl)-4-phenyl-1,2,5-oxadiazole 2-oxide], the activity at 10 µM with A498 came out at 86.3%; in the assay on HCT-116, 81.8%; in the assay on HL-60(TB) it was 119%; in the assay on HOP-92 it was 91.2%; with HS 578T, 97.5%; in the assay on K-562, 90.2%. In addition, the activity at 10 µM stood at 99.8% with KM12; 93.4% in the assay on MDA-MB-435; 98.1% in the assay with NCI-H23; 109% with NCI-H460; 105% with OVCAR-3; 104% in the assay on OVCAR-5. Moreover, the activity at 10 µM with SF-268 came out at 96.5%; in the assay on SR it was 73.9%; in the assay on UACC-62, 81.4%.
Regarding `Cc1nc(Nc2ccc(OCc3c(-c4ccccc4)no[n+]3[O-])cc2)c2c(C)nn(-c3ccccc3)c2n1` [6d, 3-((4-((3,6-dimethyl-1-phenyl-1H-pyrazolo[3,4-d]pyrimidin-4-yl)amino)phenoxy)methyl)-4-phenyl-1,2,5-oxadiazole 2-oxide], the activity at 10 µM in the assay with A498 amounted to 112%; with HCT-116, 104%; in the assay with HL-60(TB), 111%; in the assay with HOP-92, 104%; in the assay on HS 578T it was 102%; in the assay with K-562 it was 99.3%. The activity at 10 µM in the assay on KM12 is 104%; in the assay with MDA-MB-435, 105%; with NCI-H23, 102%; in the assay with NCI-H460, 112%; in the assay on OVCAR-3 it was 114%; in the assay with OVCAR-5, 101%. Moreover, the activity at 10 µM in the assay on SF-268 worked out at 106%; in the assay on SR, 102%; in the assay with UACC-62 it was 89.6%.
With `[O-][n+]1onc(-c2ccccc2)c1COc1ccc(Nc2ncnc3c2cnn3-c2ccc(Br)cc2)cc1` [6e, 3-((4-((1-(4-bromophenyl)-1H-pyrazolo[3,4-d]pyrimidin-4-yl)amino)phenoxy)methyl)-4-phenyl-1,2,5-oxadiazole 2-oxide], the activity at 10 µM worked out at 94% with A498; 92.7% with HCT-116; 96.1% in the assay with HL-60(TB); 109% in the assay with HOP-92; 110% in the assay with HS 578T; 98.5% in the assay with K-562. For the same compound, the activity at 10 µM in the assay with KM12 was 103%; in the assay with MDA-MB-435, 94.5%; in the assay on NCI-H23, 101%; with NCI-H460 it was 111%; in the assay with OVCAR-3, 117%; with OVCAR-5 it was 98.8%. The results for the activity at 10 µM with SF-268, in the assay on SR and in the assay on UACC-62 were 101%, 98% and 89.1%, respectively.
Take `Cc1nc(Nc2ccc(OCc3c(-c4ccccc4)no[n+]3[O-])cc2)c2cnn(-c3ccc(Br)cc3)c2n1` [6f, 3-((4-((1-(4-bromophenyl)-6-methyl-1H-pyrazolo[3,4-d]pyrimidin-4-yl)amino)phenoxy)methyl)-4-phenyl-1,2,5-oxadiazole 2-oxide]: the activity at 10 µM with A498 stood at 87.2%; in the assay on HCT-116 it was 97.5%; with HL-60(TB), 100%; in the assay with HOP-92, 111%; with HS 578T, 93.6%; in the assay on K-562, 91.1%. The activity at 10 µM with KM12 was 101%; in the assay on MDA-MB-435 it was 94.5%; with NCI-H23, 95.8%; with NCI-H460, 103%; in the assay with OVCAR-3, 114%; in the assay with OVCAR-5 it was 99.3%. For the same compound, the activity at 10 µM in the assay on SF-268 came to 99.9%; in the assay on SR, 87.1%; in the assay on UACC-62 it was 84.8%.
Consider `Cc1nn(-c2ccc(Br)cc2)c2ncnc(Nc3ccc(OCc4c(-c5ccccc5)no[n+]4[O-])cc3)c12` [6g, 3-((4-((1-(4-bromophenyl)-3-methyl-1H-pyrazolo[3,4-d]pyrimidin-4-yl)amino)phenoxy)methyl)-4-phenyl-1,2,5-oxadiazole 2-oxide], for which the activity at 10 µM worked out at 106% in the assay with A498; 90.7% in the assay with HCT-116; 115% in the assay on HL-60(TB); 86.5% in the assay with HOP-92; 93.4% with HS 578T; 103% in the assay with K-562. Besides, the activity at 10 µM with KM12 is 98.6%; in the assay on MDA-MB-435, 101%; in the assay with NCI-H23, 95%; in the assay with NCI-H460, 100%; in the assay on OVCAR-3 it was 112%; in the assay with OVCAR-5, 99.3%. Besides, the activity at 10 µM amounted to 104% in the assay with SF-268, 121% in the assay with SR and 80.3% in the assay on UACC-62.
Consider `Cc1nc(Nc2ccc(OCc3c(-c4ccccc4)no[n+]3[O-])cc2)c2c(C)nn(-c3ccc(Br)cc3)c2n1` [6h, 3-((4-((1-(4-bromophenyl)-3,6-dimethyl-1H-pyrazolo[3,4-d]pyrimidin-4-yl)amino)phenoxy)methyl)-4-phenyl-1,2,5-oxadiazole 2-oxide], for which the activity at 10 µM was 110% in the assay with A498; 71.5% in the assay with HCT-116; 70.8% in the assay with HL-60(TB); 94.6% in the assay with HOP-92; 94.8% in the assay with HS 578T; 83.6% in the assay on K-562. Moreover, the activity at 10 µM in the assay on KM12 amounted to 97.7%; with MDA-MB-435, 96.7%; with NCI-H23, 96.6%; with NCI-H460 it was 100%; in the assay on OVCAR-3, 104%; with OVCAR-5, 102%. In addition, the values for the activity at 10 µM with SF-268, in the assay on SR and with UACC-62 were 94.7%, 72% and 80.2%, respectively.
Consider `Cc1nn(-c2ccc(Br)cc2)c2nc(CCl)[nH]c(=O)c12` [13c], for which the activity at 10 µM with A498 is -88.8%; with HCT-116 it was 98.3%; in the assay on HOP-92, 101%; with HS 578T, 108%; in the assay with K-562, 75.6%; with KM12, 83.6%. The activity at 10 µM in the assay on MDA-MB-435 came out at 101%; with NCI-H23, 103%; in the assay on NCI-H460, 109%; with OVCAR-3, 97.4%; in the assay with OVCAR-5 it was 116%; in the assay on SF-268, 99.4%. Also, in the assay on UACC-62, the activity at 10 µM worked out at 101%.
